From paper PMC3842914, “Meleagrin, a New FabI Inhibitor from Penicillium chryosogenum with at Least One Additional Mode of Action” (PLoS ONE, 2013)

Target: T1, S. aureus FabI (Staphylococcus aureus, UniProt Q6GI75)
T1 construct: made in house
T1 sequence (Q6GI75 1-256): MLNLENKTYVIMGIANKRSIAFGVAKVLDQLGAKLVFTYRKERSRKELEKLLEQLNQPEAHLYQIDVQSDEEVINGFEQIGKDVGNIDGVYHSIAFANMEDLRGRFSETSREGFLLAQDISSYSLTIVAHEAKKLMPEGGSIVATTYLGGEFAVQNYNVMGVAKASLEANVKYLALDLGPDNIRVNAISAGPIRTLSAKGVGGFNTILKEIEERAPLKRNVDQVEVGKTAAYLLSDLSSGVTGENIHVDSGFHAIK
Assay: Fluorescence quenching assay (direct binding)
Conditions: increasing amounts of compound; FabI fluorescence at 307 nm
Experimental: Fluorescence spectra were measured using a SHIMADZU fluorescence spectrophotometer (model RF-5310PC). […] Protein quenching was monitored at 25°C by using 5-nm excitation and 5-nm emission wavelength. The excitation wavelength was 280 nm, and the emission spectra were measured between 290 and 430 nm.

Structure (SMILES): NC[C@H]1O[C@H](O[C@H]2[C@H](O)[C@@H](O[C@H]3O[C@H](CO)[C@@H](O)[C@H](N)[C@H]3O)[C@H](N)C[C@@H]2N)[C@H](O)[C@@H](O)[C@@H]1O [kanamycin, reference compound]
- Fluorescence quenching of S. aureus FabI: did not
